Assay type in all cases: cell-based, human
For series [1], the system named is RAJI cells. Nature of the series: MTT cell viability / growth assay. The note with it: RAJI. The method, then:
MTT reagent was then solubilized with DMSO and absorbance was measured by ELISA plate reader at 560 nm and referenced to absorbance at 620 nm. Data are plotted as fold change relative to untreated shCtrl RAJI cells.
(§1) It was next asked what the effect of reducing TRAF1 and its signalling partner TRAF2 in lymphoma had on cell proliferation and survival. […] To determine whether this effect was due to death of the lymphoma cells, Annexin V and propidium iodide (PI) staining of the lymphomas were analyzed at different times after transfer to Erwinase containing medium. Annexin V binds to phosphatidyl serine, which becomes exposed on the surface of cells as they undergo apoptosis. Then, cells become permeable to propidium iodide upon death. […] The slightly greater effect on cell death of direct TRAF1 knockdown compared to PKN1 knockdown is consistent with the smaller effect of PKN1 knockdown on TRAF1 levels compared to direct TRAF1 knockdown with shTRAF1.
FIG. 7 provides a rationale for a screen for a PKN1 inhibitor that synergizes with Erwinase: In particular, the assay is used to look for inhibitors that act at nanomolar concentration to reduce cell survival. […] Inhibitors that reduce the signal in the MTT assay by at least 3 fold relative to Erwinase alone will be identified as potential PKN1 inhibitors. This initial screen is amenable to a 96 well plate assay in which each drug candidate is tested on control RAJI cells with and without Erwinase as well as shPKN1 RAJI cells with Erwinase. Candidate drugs that lower the signal on control RAJI cells only in the presence but not in the absence of Erwinase, and have no effect on PKN1 knockdown cells treated with Erwinase, represent candidates for kinase inhibitors that act through PKN1 inhibition to reduce TRAF1 levels. The candidates can then be verified by determining the inhibitory effects on TRAF1 levels.

Series [2] concerns TRAF1. The experiment in a line: TRAF1 levels by Western blot after shRNA knockdown. The following applies: RAJI stably expressing shRNA, versus control treated RAJI. The method, then: Left: RAJI cells were stably transfected with control small hairpin (sh) RNA or with shRNA designed to knockdown expression of TRAF1 (shRNAs obtained from Open Biosystems (TRC library number: TRCN0000056885 sequence: […]) (SEQ ID NO:1)). TRAF1 levels in RAJI expressing shCtrl or with shTRAF1 were analyzed by Western blot. Protein loading was analyzed based on GAPDH levels. Right: TRAF1 levels in B-chronic lymphocytic leukemia (CLL) lines and Daudi CD5+ (a Burkitt's lymphoma with CLL like properties) were determined by Western blot.
Left: Schematic diagram of TRAF1 indicating site of phosphorylation by PKN1 as identified by Kato et al.^29 Middle: RAJI cells were stably transfected with control shRNA (shCtrl), TRAF1 shRNA (shTRAF1) or PKN1 shRNA (shPKN1) (obtained from Open Biosystems (TRC library number: TRCN0000001484 sequence: […] (SEQ ID NO:2)). Right: Daudi cells were transduced with control shRNA (shCTRL), shRNA targeting TRAF1 (shTRAF1) or shRNA targeting PKN1 (shPKN1). Cells were analyzed for levels of TRAF1, tubulin or GAPDH by western blot. “Pool” refers to bulk transfected cell lines without subcloning.
Based on the finding that primary T cells lacking TRAF1 are sensitive to loss of TRAF2 when 4-1 BB signalling is induced during nutrient stress, the role of the reduction of TRAF1 levels combined with nutrient stress on B lymphomas was tested. […]

In series [3] the test system is RAJI cells. The experiment in a line: Annexin V / propidium iodide cell death by flow cytometry, RAJI. The note with it: 1 IU/ml Erwinase. How it is done:
RAJI cells stably expressing control shRNA (shCtrl), TRAF1 shRNA (shTRAF1) or PKN1 shRNA (shPKN1) were left untreated or treated with 1 IU/ml Erwinase for the indicated time points. For cells treated with Erwinase for longer than 24 hrs, cell culture media was replaced every 24 hrs and 1 IU/ml Erwinase was added to ensure the continued absence of glutamine. Cells were then stained with Annexin V-FITC (ebioscience) and Propidium Iodide (PI) and then analyzed by flow cytometry (BD LSR Fortessa). The upper right quadrant (Q2) indicates the fraction dead cells.
(A) Whole cell extracts from RAJI cells treated with control shRNA (shCTRL) or TRAF2 shRNA (shTRAF2) were immunoblotted for TRAF2 or as a loading control, GAPDH. (B) Annexin V staining of RAJI after Erwinase treatment (1 IU/ml; 24 hrs) in shCTRL, shTRAF1 or shTRAF2 cells.
as §1
In general terms: In flow cytometry, cells or beads pass a laser one at a time.

The subject of series [4] is Chronic lymphocytic leukemia cell line MEC2. Nature of the series: Annexin V / propidium iodide cell death by flow cytometry, MEC2. The note with it: MEC2, 1 IU/ml Erwinase, 0, 18, 24 or 42 hrs. How it is done: MEC2 cells were transfected with control shRNA (shCTRL), shTRAF1 or shPKN1 and then were left untreated or treated with 1 IU/ml Erwinase for 0, 18, 24 or 42 hrs. Cell death was measured by flow cytometry for Annexin V and propidium iodide (PI), where double staining for Annexin V and Propidium iodide (PI) is used to indicate cell death.

For series [5], the system named is TRAF2. Nature of the series: TRAF2 levels by immunoblot during nutrient stress. The following applies: RAJI cells, nutrient stress (low glutamine), versus WT. The method, then:
(B) Wild type (WT), shCtrl or shTRAF1 RAJI cells were treated with 1 IU/ml Erwinase for 1, 3 or 6 hrs and immunoblotted for TRAF2 and TRAF1.
Right: RAJI cells stably expressing shCtrl or shPKN1 were treated with 1 IU/ml Erwinase for 0, 3 or 6 hrs and lysates were immunoblotted for TRAF2, or as a loading control, GAPDH.
To test the effect of lower levels of TRAF1 on the level of TRAF2 in lymphoma, WT and shTRAF1 RAJI cells were incubated under conditions of nutrient stress (low glutamine). […] In order to mimic conditions of nutrient stress in a manner that can be useful therapeutically, the licensed drug Erwinase (described above) was utilized. […] Of note, in contrast to the work with primary cells, the loss of TRAF2 when TRAF1 is limiting occurred without a need to add reagents to specifically engage a TNFR family member, but rather occurs spontaneously upon nutrient stress.
For orientation: Immunoblotting shows a protein as a band on a membrane.

With “shTRAF1: shRNA designed to knockdown expression of TRAF1, sequence CGTGTGTTTGAGAACATTG (Open Biosystems TRC library)”, the “cell growth / proliferation with Erwinase (MTT)” value in series [1] (1 IU/ml Erwinase) is given as “sensitizes lymphoma to growth inhibition by Erwinase”. The “tumour growth rate (MTT)” value in series [1] (complete culture medium, no Erwinase) is on record as “no impact on the tumour growth rate”. Moreover, the TRAF1 levels result in series [2] is on record as “substantially lower levels of TRAF1”. Moreover, the “sensitivity to Erwinase induced death (Annexin V/PI)” value in series [3] is on record as “Increases the Sensitivity of RAJI to Erwinase Induced Death”; in series [4] it was “increases the sensitivity of the Chronic lymphocytic leukemia cell line MEC2 to Erwinase induced death”. In addition, the “TRAF2 level under low glutamine” value in series [5] is on record as “TRAF2 was lost”.

Values taken from patent US20160361391A1, “REDUCTION OF TRAF1 LEVELS COMBINED WITH NUTRIENT STRESS FOR TREATING LYMPHOCYTE-RELATED CANCERS” (THE GOVERNING COUNCIL OF THE UNIVERSITY OF TORONTO, priority 2014, published 2016).
